Assay results reported in US20100209496A1, “LIQUID AND SEMI-SOLID PHARMACEUTICAL FORMULATIONS FOR ORAL ADMINISTRATION OF A SUBSTITUTED AMIDE” (priority 2006, published 2010).
Where two headings read alike, the source gives them in different places. Marks after values point to notes of the source that are not given here.

Tests used:
[1] = Pharmacokinetics after oral administration of liquid filled capsules; format: in vivo, male Beagle dogs; conditions: male, Beagle, dog, plasma, 40 mg, 40 mg oral, Mean ± SD; for AUC(0-t): read-out: AUC0-24
[2] = Compound I chemical stability in various liquid vehicles at 40° C.; format: physicochemical; conditions: 40° C. vs −20° C. control
Source text: Stability of 3-[(3aR,4R,5S,7aS)-5-{(1R)-1-[3,5-bis(Trifluoromethyl)phenyl]ethoxy}-4-(4-fluorophenyl)-octahydro-2H-isoindol-2-yl]cyclopent-2-en-1-one, (Compound I) in Various Liquid Vehicles

[3] = Compound I Form I solubility in various liquid vehicles; format: physicochemical
[4] = liquid filled capsules with Imwitor742/Tween80 (75:25), male Beagle dogs
[5] = liquid filled capsules with Imwitor742:Tween80 (50:50), male Beagle dogs
[6] = liquid filled capsules with pure Imwitor742, male Beagle dogs

Cmax [1, 4]: 4.06 ± 0.49 µM
Tmax [1, 4]: 3.33 ± 1.03 h
AUC(0-t) [1, 4]: 65.4 ± 14.7 µM·h
Cmax [1, 5]: 3.04 ± 0.44 µM
Tmax [1, 5]: 3.67 ± 0.82 h
AUC(0-t) [1, 5]: 49 ± 11.5 µM·h
Cmax [1, 6]: 4.22 ± 0.54 µM
Tmax [1, 6]: 4.67 ± 1.63 h
AUC(0-t) [1, 6]: 69 ± 14.2 µM·h
Chemical stability ([2]; 1 mg Compound I/g vehicle, 1:1 Imwitor 742:Tween 80 +0.05% PG + 0.05% BHA, 1 wk): 102.2 % claim
Chemical stability ([2]; 1 mg Compound I/g vehicle, 1:1 Imwitor 742:Tween 80 +0.05% PG + 0.05% BHA, 18 wk): 94.7 % claim
Chemical stability ([2]; 1 mg Compound I/g vehicle, 1:1 Imwitor 742:Tween 80 +0.05% PG + 0.05% BHT, 1 wk): 99.4 % claim
Chemical stability ([2]; 1 mg Compound I/g vehicle, 1:1 Imwitor 742:Tween 80 +0.05% PG + 0.05% BHT, 18 wk): 93.7 % claim
Chemical stability ([2]; 1 mg Compound I/g vehicle, 1:1 Imwitor 742:Tween 80 +0.05% PG + 0.05% NaSO3, 1 wk): 98.5 % claim
Chemical stability ([2]; 1 mg Compound I/g vehicle, 1:1 Imwitor 742:Tween 80 +0.1% Ascorbic Acid Palmitate, 1 wk): 94.2 % claim
Chemical stability ([2]; 1 mg Compound I/g vehicle, 1:1 Imwitor 742:Tween 80 +0.1% Ascorbic Acid Palmitate, 4 wk): 89.4 % claim
Chemical stability ([2]; 1 mg Compound I/g vehicle, 1:1 Imwitor 742:Tween 80 +0.1% BHA, 1 wk): 98.4 % claim
Chemical stability ([2]; 1 mg Compound I/g vehicle, 1:1 Imwitor 742:Tween 80 +0.1% BHA, 4 wk): 96.1 % claim
Chemical stability ([2]; 1 mg Compound I/g vehicle, 1:1 Imwitor 742:Tween 80 +0.1% Propyl Gallate, 1 wk): 99.6 % claim
Chemical stability ([2]; 1 mg Compound I/g vehicle, 1:1 Imwitor 742:Tween 80 +0.1% Propyl Gallate, 4 wk): 97.7 % claim
Chemical stability ([2]; 1 mg Compound I/g vehicle, 1:1 Imwitor 742:Tween 80 +0.1% Propyl Gallate, 18 wk): 93.1 % claim
Chemical stability ([2]; 1 mg Compound I/g vehicle, 1:1 Imwitor 742:Tween 80 +0.1% α-tocopherol, 1 wk): 86.7 % claim
Chemical stability ([2]; 1 mg Compound I/g vehicle, 1:1 Imwitor 742:Tween 80 +0.1% α-tocopherol, 4 wk): 71.1 % claim
Chemical stability ([2]; 1 mg Compound I/g vehicle, 1:1 Imwitor 742:Tween 80, 1 wk): 95.2 % claim
Chemical stability ([2]; 1 mg Compound I/g vehicle, 1:1 Imwitor 742:Tween 80, 4 wk): 90.4 % claim
Chemical stability ([2]; 1 mg Compound I/g vehicle, 1:1 Imwitor 742:Tween 80, 5 wk): 83.8 % claim
Chemical stability ([2]; 1 mg Compound I/g vehicle, 1:1 Imwitor 742:Tween 80, 18 wk): 73.7 % claim
Chemical stability ([2]; 1 mg Compound I/g vehicle, 6:4 Imwitor 742:Propylene Glycol, 1 wk): 100.2 % claim
Chemical stability ([2]; 1 mg Compound I/g vehicle, 6:4 Imwitor 742:Propylene Glycol, 2 wk): 100.6 % claim
Chemical stability ([2]; 1 mg Compound I/g vehicle, 6:4 Imwitor 742:Propylene Glycol, 4 wk): 100.0 % claim
Chemical stability ([2]; 1 mg Compound I/g vehicle, 6:4 Imwitor 742:Propylene Glycol, 8 wk): 100.6 % claim
Chemical stability ([2]; 1 mg Compound I/g vehicle, 9:1 Imwitor 742:Tween 80, 1 wk): 99.6 % claim
Chemical stability ([2]; 1 mg Compound I/g vehicle, 9:1 Imwitor 742:Tween 80, 9.5 wk): 96.4 % claim
Chemical stability ([2]; 1 mg Compound I/g vehicle, Capmul MCM C8, 1 wk): 99.0 % claim
Chemical stability ([2]; 1 mg Compound I/g vehicle, Capmul MCM C8, 32.5 wk): 78.1 % claim
Chemical stability ([2]; 1 mg Compound I/g vehicle, Capmul PG-8, 1 wk): 99.7 % claim
Chemical stability ([2]; 1 mg Compound I/g vehicle, Imwitor 742, 1 wk): 99.8 % claim
Chemical stability ([2]; 1 mg Compound I/g vehicle, Imwitor 742, 5 wk): 98.8 % claim
Chemical stability ([2]; 1 mg Compound I/g vehicle, Imwitor 742, 9.5 wk): 99.8 % claim
Chemical stability ([2]; 1 mg Compound I/g vehicle, Imwitor 742, 32.5 wk): 97.0 % claim
Chemical stability ([2]; at 10 mg/g, Imwitor 742 + 0.75 eq HCl, 1 wk): 100.6 % claim
Chemical stability ([2]; at 10 mg/g, Imwitor 742:Tween 80 +0.75 eq Benzenesulfonic Acid (acid not completely dissolved), 1 wk): 99.1* % claim
Chemical stability ([2]; at 10 mg/g, Imwitor 742:Tween 80 +0.75 eq HCl, 1 wk): 95.2 % claim
Chemical stability ([2]; at 10 mg/g, Imwitor 742:Tween 80 +0.75 eq Phosphoric Acid, 1 wk): 96.4 % claim
Chemical stability ([2]; at 10 mg/g, Imwitor 742:Tween 80 +0.75 eq Sulfuric Acid, 1 wk): 82.9 % claim
Chemical stability ([2]; at 10 mg/g, PEG 400 + 0.75 eq HCl, 1 wk): 60.3 % claim
Chemical stability ([2]; at 10 mg/g, Propylene Glycol + 0.75 eq HCl, 1 wk): 95.2 % claim
Solubility ([3]; Form I, 0.5% Methylcellulose, Room Temp): 0.001 mg/g of formulation
Solubility ([3]; Form I, 1:1 Imwitor:Tween + 1 eq HCl, Room Temp): >57 mg/g of formulation
Solubility ([3]; Form I, Acconon MC-8, 35° C.): <1 mg/g of formulation
Solubility ([3]; Form I, Capmul MCM C-8, 35° C.): 53 mg/g of formulation
Solubility ([3]; Form I, Capmul PG-8, 35° C.): 50 mg/g of formulation
Solubility ([3]; Form I, Capmul PG-12, 35° C.): 25 mg/g of formulation
Solubility ([3]; Form I, Capryol PGMC, 30° C.): 29 mg/g of formulation
Solubility ([3]; Form I, Capryol PGMC, Room Temp): >6 mg/g of formulation
Solubility ([3]; Form I, Captex 200P, 35° C.): 2 mg/g of formulation
Solubility ([3]; Form I, Corn Oil, Room Temp): <0.1 mg/g of formulation
Solubility ([3]; Form I, Cremophor EL, Room Temp): 2 mg/g of formulation
Solubility ([3]; Form I, Ethanol, Room Temp): 58 mg/g of formulation
Solubility ([3]; Form I, Gelucire 44/14, 65° C.): 4 mg/g of formulation
Solubility ([3]; Form I, Glycerin, Room Temp): <0.5 mg/g of formulation
Solubility ([3]; Form I, Imwitor 308, 35° C.): 58 mg/g of formulation
Solubility ([3]; Form I, Imwitor 642, 35° C.): 78 mg/g of formulation
Solubility ([3]; Form I, Imwitor 742, 30° C.): 43 mg/g of formulation
Solubility ([3]; Form I, Imwitor 742, 35° C.): 46 mg/g of formulation
Solubility ([3]; Form I, Imwitor 742, Room Temp): >6 mg/g of formulation
Solubility ([3]; Form I, Imwitor 988, 35° C.): 54 mg/g of formulation
Solubility ([3]; Form I, Labrafil M1944CS, 35° C.): 4 mg/g of formulation
Solubility ([3]; Form I, Labrafil M2125CS, 35° C.): 4 mg/g of formulation
Solubility ([3]; Form I, Labrafil M2125CS, Room Temp): 5 mg/g of formulation
Solubility ([3]; Form I, Labrasol, 35° C.): 11 mg/g of formulation
Solubility ([3]; Form I, Labrasol, Room Temp): 7 mg/g of formulation
Solubility ([3]; Form I, Miglyol 812, Room Temp): 0.4 mg/g of formulation
Solubility ([3]; Form I, Olive Oil, Room Temp): <0.1 mg/g of formulation
Solubility ([3]; Form I, PEG 400:water (92:8) + 1 eq HCl, Room Temp): 24 mg/g of formulation
Solubility ([3]; Form I, PEG 400:water (92:8) + 1 eq NaOH, Room Temp): 1.3 mg/g of formulation
Solubility ([3]; Form I, PEG 400:water (92:8), Room Temp): 1.0 mg/g of formulation
Solubility ([3]; Form I, PEG 400, Room Temp): 2 mg/g of formulation
Solubility ([3]; Form I, Peceol, 35° C.): 19 mg/g of formulation
Solubility ([3]; Form I, Propylene Glycol, 35° C.): 8 mg/g of formulation
Solubility ([3]; Form I, Propylene Glycol, Room Temp): 5 mg/g of formulation
Solubility ([3]; Form I, Soybean Oil, Room Temp): <0.1 mg/g of formulation
Solubility ([3]; Form I, Tween 20, Room Temp): 2 mg/g of formulation
Solubility ([3]; Form I, Tween 80, Room Temp): 1 mg/g of formulation
Solubility ([3]; Form I, Water, Room Temp): <0.0002 mg/g of formulation
Solubility ([3]; Form I, pH 1.3 aqueous, Room Temp): 0.001 mg/g of formulation
Solubility ([3]; Form I, pH 2.2 to 10.1 aqueous, Room Temp): <0.0002 mg/g of formulation
Solubility ([3]; aqueous medium, read-out: aqueous solubility): < 0.2 µg/mL
solubility in Miglyol 812 ([3]; relative to a fully efficacious amount of solubilized compound in a 500 mg capsule): not sufficiently soluble
Structure (SMILES): C[C@@H](O[C@H]1CC[C@@H]2CN(C3=CC(=O)CC3)C[C@H]2[C@@H]1c1ccc(F)cc1)c1cc(C(F)(F)F)cc(C(F)(F)F)c1 [Compound I, 3-[(3aR,4R,5S,7aS)-5-{(1R)-1-[3,5-bis(Trifluoromethyl)phenyl]ethoxy}-4-(4-fluorophenyl)-octahydro-2H-isoindol-2-yl]cyclopent-2-en-1-one]
